# Measurements taken from PubChem BioAssay (NCI).
#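 48-hour exposure; five concentrations; linearly interpolated endpoints. TGI marks complete inhibition of growth.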
# Legend:
# Test in all cases: NCI anticancer screen, dose series, 48 h
# HOP-62 NSCLC = test system: HOP-62 NSCLC
# HT29 colon = test system: HT29 colon
# MCF7 breast = test system: MCF7 breast
# UO-31 renal = test system: UO-31 renal
# K-562 leukemia = test system: K-562 leukemia
# SK-MEL-2 melanoma = test system: SK-MEL-2 melanoma
# IGROV1 ovarian = test system: IGROV1 ovarian
# LOX IMVI melanoma = test system: LOX IMVI melanoma
# SN12C renal = test system: SN12C renal
# NCI-H23 lung = test system: NCI-H23 lung
# CAKI-1 renal = test system: CAKI-1 renal
# OVCAR-3 ovarian = test system: OVCAR-3 ovarian
# RXF 393 renal = test system: RXF 393 renal
# EKVX NSCLC = test system: EKVX NSCLC
# SR leukemia = test system: SR leukemia
# OVCAR-8 ovarian = test system: OVCAR-8 ovarian
# HCT-15 colon = test system: HCT-15 colon
# SF-539 CNS = test system: SF-539 CNS
# KM12 colon = test system: KM12 colon
# NCI-H460 lung = test system: NCI-H460 lung
smiles,measurement,setting,value
COC1/C=C/C=C(/C)Cc2cc(O)c(Cl)c(c2)N(C)C(=O)CC(OC(=O)C(C)C)C2(C)OC2C(C)C2CC1(O)NC(=O)O2 (stereo not drawn),TGI,HOP-62 NSCLC,> 100 µM
same,TGI,HT29 colon,< 0.01 µM
same,TGI,MCF7 breast,> 100 µM
same,TGI,UO-31 renal,> 100 µM
same,TGI,K-562 leukemia,> 100 µM
same,TGI,SK-MEL-2 melanoma,> 43.6 µM
same,TGI,IGROV1 ovarian,> 100 µM
same,TGI,LOX IMVI melanoma,> 100 µM
same,TGI,SN12C renal,> 44.7 µM
same,TGI,NCI-H23 lung,< 0.01 µM
same,TGI,CAKI-1 renal,> 100 µM
same,TGI,OVCAR-3 ovarian,> 100 µM
same,TGI,RXF 393 renal,> 100 µM
same,TGI,EKVX NSCLC,> 100 µM
same,TGI,SR leukemia,> 55.4 µM
same,TGI,OVCAR-8 ovarian,> 100 µM
CCOC(=O)c1nc2ccc(OC)cc2c2c1Cc1ccccc1-2,TGI,HCT-15 colon,> 100 µM
same,TGI,SF-539 CNS,> 100 µM
same,TGI,HOP-62 NSCLC,> 100 µM
same,TGI,HT29 colon,> 100 µM
same,TGI,UO-31 renal,> 100 µM
same,TGI,K-562 leukemia,> 100 µM
same,TGI,SK-MEL-2 melanoma,> 100 µM
same,TGI,IGROV1 ovarian,> 100 µM
same,TGI,LOX IMVI melanoma,> 100 µM
same,TGI,SN12C renal,> 100 µM
same,TGI,NCI-H23 lung,> 100 µM
same,TGI,CAKI-1 renal,> 100 µM
same,TGI,KM12 colon,> 100 µM
same,TGI,OVCAR-3 ovarian,> 100 µM
same,TGI,RXF 393 renal,71.6 µM
same,TGI,NCI-H460 lung,> 100 µM
same,TGI,SR leukemia,> 100 µM
same,TGI,OVCAR-8 ovarian,> 100 µM
O=C1CC(/C=C/c2ccco2)=C(O)C1=O,TGI,HCT-15 colon,31.9 µM
same,TGI,SF-539 CNS,31.1 µM
same,TGI,HOP-62 NSCLC,9.07 µM
same,TGI,HT29 colon,30.4 µM
same,TGI,MCF7 breast,21.4 µM
same,TGI,UO-31 renal,61.3 µM
same,TGI,K-562 leukemia,49 µM
same,TGI,SK-MEL-2 melanoma,35.1 µM
same,TGI,IGROV1 ovarian,24.5 µM
same,TGI,LOX IMVI melanoma,25.4 µM
same,TGI,SN12C renal,27.7 µM
same,TGI,NCI-H23 lung,27.2 µM
same,TGI,CAKI-1 renal,34.6 µM
same,TGI,KM12 colon,27.6 µM
same,TGI,OVCAR-3 ovarian,27.1 µM
same,TGI,RXF 393 renal,21.7 µM
same,TGI,EKVX NSCLC,37.6 µM
same,TGI,NCI-H460 lung,35.6 µM
same,TGI,SR leukemia,37.2 µM
same,TGI,OVCAR-8 ovarian,30 µM
CC(=O)C(=O)NC1/C=C(C)\C=C/C(O)C/C=C(C)\C=C/C(O)CC2OC(=O)C1(C)C(=O)C2C (stereo not drawn),TGI,HCT-15 colon,> 100 µM
same,TGI,SF-539 CNS,> 100 µM
same,TGI,HOP-62 NSCLC,> 100 µM
same,TGI,HT29 colon,> 100 µM
same,TGI,MCF7 breast,> 100 µM
same,TGI,UO-31 renal,> 100 µM
same,TGI,K-562 leukemia,> 100 µM
same,TGI,SK-MEL-2 melanoma,> 100 µM
same,TGI,IGROV1 ovarian,> 100 µM
same,TGI,LOX IMVI melanoma,> 100 µM
same,TGI,SN12C renal,> 100 µM
same,TGI,NCI-H23 lung,> 100 µM
same,TGI,CAKI-1 renal,> 100 µM
same,TGI,KM12 colon,> 100 µM
same,TGI,OVCAR-3 ovarian,> 100 µM
same,TGI,RXF 393 renal,> 100 µM
same,TGI,EKVX NSCLC,> 100 µM
same,TGI,NCI-H460 lung,> 100 µM
same,TGI,OVCAR-8 ovarian,> 100 µM
